Data taken from patent US20130172273A1, “CYCLOTETRAPEPTIDES WITH PRO-ANGIOGENIC PROPERTIES” (GENETADI BIOTECH, S.L., priority 2010, published 2013).

Columns and labels:
[1] = test system: 17 angiogenic and adhesion-related genes in HUVEC cells; test: Gene regulation assay (whole human gene-expression microarray); type: cell-based; settings: 10^−5M, 48 hours, FIG. 2
Experimental: HUVEC cells were maintained in CS—C Complete Medium, grown at 50 percent of confluency and then treated with 1.00E-05 M final concentration of the peptide compounds during 48 hours.
Total RNA was extracted from untreated control or RGD-compounds treated cells using TRIzol (Invitrogen) according to standard protocol. RNA was further purified with RNeasy Mini Kit (Qiagen) and the concentration and quality was assessed by NanoDrop spectrophotometer and Agilent 2100 Bioanalyzer, respectively. Only RNA Samples with a RIN number between […]were used in the microarray assays.
In order to study the intracellular effect of all RGD-binding compounds, a cell-culture whole gene-expression assay was performed. HUVEC cells were treated separately with a 10^−5M concentration of the test compounds during 48 hours. The simultaneous analysis of all human gene-expression by microarray let us identify which human gene(s) are induced, inhibited or un-affected after the test compounds were bound to the receptors of the cells.
Whole human gene expression microarray analysis was performed using Agilent Technologies (Santa Clara, Calif.). This platform comprises a two-color design with two RNA samples labelled with either Cy3 or Cy5 and hybridized to the same 44K Agilent microarray. Each array contains about 41,000 unique noncontrol 60-mer probes. RNAs from untreated and peptide treated-HUVEC cells were two-color labelled and hybridized to randomly chosen arrays a total of four times. A dye swap was performed for each sample on a different slide to remove any bias from the labelling dyes.
For each sample, 800 ng total RNA was reverse transcribed, linear amplified, and labelled with either Cy3 or Cy5 using Agilent's Low RNA Input Linear Amplification Kit PLUS, according to manufacturer's instructions. After labelling, samples were measured on a Nanodrop microarray module for labelling efficiency and quantification. Samples were then hybridized on Agilent 4×44K whole human genome GE arrays at 65° C. for 17 h. After washing in GE washing buffer, the slide was scanned with Agilent Microarray Scanner. Feature extraction software (Version 9.5.3) was used to convert the image into gene expression data. Data were normalized by the Linear Lowess method. Genes that were 1.5-fold differentially expressed on 3 of 4 arrays were scored as significant. Furthermore, only genes with a p-value≦0.05 based on a Student's t-test were selected. Mean fold change is mean of 4 arrays. Angiogenic-related genes were classified according to Gene Ontology.

[2] = molecular target: αvβ3 integrin (Homo sapiens, UniProt P05106+P06756); settings: J. Med. Chem. 2010, vol. 53(1), pp. 106-118; cited from earlier work
Chain of αvβ3 integrin (P06756 31-889 limits assumed): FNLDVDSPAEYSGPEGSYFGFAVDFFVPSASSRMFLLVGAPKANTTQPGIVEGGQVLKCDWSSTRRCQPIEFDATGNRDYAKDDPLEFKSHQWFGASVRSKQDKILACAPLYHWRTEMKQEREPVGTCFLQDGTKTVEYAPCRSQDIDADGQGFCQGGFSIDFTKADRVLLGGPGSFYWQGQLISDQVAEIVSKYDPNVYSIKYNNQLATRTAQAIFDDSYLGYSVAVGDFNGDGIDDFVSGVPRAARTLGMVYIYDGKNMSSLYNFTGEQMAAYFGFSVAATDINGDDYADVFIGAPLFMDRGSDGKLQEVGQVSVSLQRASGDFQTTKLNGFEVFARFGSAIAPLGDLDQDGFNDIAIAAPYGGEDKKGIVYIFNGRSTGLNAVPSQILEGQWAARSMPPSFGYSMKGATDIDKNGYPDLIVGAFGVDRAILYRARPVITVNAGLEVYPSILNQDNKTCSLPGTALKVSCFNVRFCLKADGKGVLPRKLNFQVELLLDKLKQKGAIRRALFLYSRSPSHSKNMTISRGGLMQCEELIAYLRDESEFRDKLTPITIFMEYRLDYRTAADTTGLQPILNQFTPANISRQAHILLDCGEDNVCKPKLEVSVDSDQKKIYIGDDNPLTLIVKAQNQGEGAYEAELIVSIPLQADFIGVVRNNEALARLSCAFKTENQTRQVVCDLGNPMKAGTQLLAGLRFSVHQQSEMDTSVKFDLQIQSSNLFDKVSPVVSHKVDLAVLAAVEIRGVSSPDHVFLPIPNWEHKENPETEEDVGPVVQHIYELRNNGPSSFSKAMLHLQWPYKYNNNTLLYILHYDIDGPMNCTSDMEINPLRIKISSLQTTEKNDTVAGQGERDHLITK
Chain of αvβ3 integrin (P06756 891-1048 limits assumed): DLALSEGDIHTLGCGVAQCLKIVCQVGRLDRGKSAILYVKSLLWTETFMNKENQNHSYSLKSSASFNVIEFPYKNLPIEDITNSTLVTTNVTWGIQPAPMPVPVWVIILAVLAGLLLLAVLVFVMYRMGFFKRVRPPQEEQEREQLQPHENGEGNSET
Chain of αvβ3 integrin (P05106 27-788): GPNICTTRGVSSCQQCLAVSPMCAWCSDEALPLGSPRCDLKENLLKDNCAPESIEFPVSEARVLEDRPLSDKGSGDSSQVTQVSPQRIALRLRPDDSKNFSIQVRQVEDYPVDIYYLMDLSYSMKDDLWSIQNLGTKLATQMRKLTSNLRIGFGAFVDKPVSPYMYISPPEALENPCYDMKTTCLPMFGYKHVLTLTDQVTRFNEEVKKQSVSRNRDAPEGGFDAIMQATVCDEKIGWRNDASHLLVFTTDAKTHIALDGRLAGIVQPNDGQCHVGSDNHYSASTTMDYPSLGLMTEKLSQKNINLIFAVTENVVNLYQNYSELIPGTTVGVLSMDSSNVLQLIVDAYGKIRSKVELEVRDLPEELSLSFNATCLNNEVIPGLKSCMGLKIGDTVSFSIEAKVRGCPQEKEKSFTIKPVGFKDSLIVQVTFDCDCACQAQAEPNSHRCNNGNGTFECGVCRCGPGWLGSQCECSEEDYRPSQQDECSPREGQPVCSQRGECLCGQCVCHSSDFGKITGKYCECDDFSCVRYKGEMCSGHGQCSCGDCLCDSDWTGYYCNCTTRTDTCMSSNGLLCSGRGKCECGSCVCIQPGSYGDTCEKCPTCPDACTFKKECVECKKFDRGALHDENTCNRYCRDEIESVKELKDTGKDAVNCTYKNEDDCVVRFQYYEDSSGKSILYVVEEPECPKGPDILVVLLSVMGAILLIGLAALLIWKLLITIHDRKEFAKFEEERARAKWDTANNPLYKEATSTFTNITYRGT

[3] = test system: αvβ3 integrin over-expressed human umbilical vein endothelial cells (HUVEC); test: Endothelial cell adhesion assay (adhesion inhibition on a vitronectin surface); type: cell-based; settings: HUVEC on vitronectin-coated plate, 1 h at 37° C.; FIG. 1
Experimental: Human umbilical endothelial cell (HUVEC) was purchased from Cambrex BioScience (USA). Cells were grown on the 0.5% gelatin coated plate in CS—C Complete Medium (Sigma) and were used for experiments after three passages. DLD-1, human colon cancer cell line was purchased from LGC/ATCC (Cat. Number CCL-221), and maintained in RPMI 1640 (Sigma) supplemented with 10% FBS (Sigma). Human vitronectin was from Sigma. Peptides to be assayed were dissolved in double-distilled water at a concentration of 10 mg/ml and stored in the dark at −80°.
HUVEC cells were grown to subconfluent state and then harvested by 0.025% trypsin/EDTA (Sigma) in one minute. Cells were preincubated with various concentrations of peptides on ice for 15 min in CS—C Medium. Same volume of vehicle was added to cells as a control. Peptide-treated cells (5×10^4 cells/100 μl/well) were plated onto a 96-well microplate which was precoated with vitronectin ([…] in PBS), and incubated for 1 h at 37° C., 5% CO^2/95% air to allow cell attachment. Cells were washed gently with PBS for three times to remove detached cells. Number of adherent cells was measured by Fluorescent Cell counting Kit (FCCK) at 535 nm (excitation at 485 nm) using a fluorescent plate reader (Bioscan). […]
Data are expressed as the means±standard error of mean (SEM). Statistical differences among treatment groups were assessed by analysis of variance (ANOVA). […]

[4] = of 17 angiogenic and adhesion-related genes

CC(C)[C@H]1C(=O)N[C@@H](CCCN=C(N)N)C(=O)NCC(=O)N[C@@H](CC(=O)O)C(=O)N[C@H](Cc2ccccc2)C(=O)N1C [cilengitide, cyclo(Arg-Gly-Asp-(D)Phe-N(Me)Val)]
genes activated after treatment [1, 4]: 10 genes | genes blocked after treatment [1, 4]: 7 genes

N=C(N)NCCC[C@@H]1NC(=O)CN2C(=O)C(NC(=O)[C@H](CC(=O)O)NC(=O)CNC1=O)[C@H]2[C@H](O)CO (stereo partly shown) [compound 1]
pattern of gene-expression conserved relative to cilengitide ([1]; of 17 genes): 15/17

c[(R)-βPheψ(NHCO)Aspψ(NHCO)Gly-Arg]
inhibiting the αvβ3 integrin-mediated cell adhesion [2]: good activity

CC1(C)C(=O)N[C@@H](CCCNC(=N)N)C(=O)NCC(=O)N[C@@H](CC(=O)O)C(=O)NC2(Cc3ccccc3)CN1C2=O (stereo partly shown) [compound 2]
pattern of gene-expression conserved relative to cilengitide ([1]; of 17 genes): 14 of 17

cyclo-[Asp-(beta-Lactam)-Arg [Example 24]
pattern of gene-expression almost opposite (activation vs inhibition) compared with cilengitide ([1]; of 17 genes): 15 of 17 | adhesion inhibition (% of cell adhesion vs. concentration) [3]: comparable adhesion inhibition as cilengitide and the RGD-cyclopentapeptides
